Measured values: US12077503B2, “Substituted cyclic amides and their use as herbicides” (FMC CORPORATION, priority 2015, dated 2024)

How the values were obtained:
Type in all cases: in vivo
[1] = tested on: barnyardgrass (Echinochloa crus-galli); experiment: Test C flooded paddy test; settings: Flood; for Plant response rating (scale of 0 to 100), Barnyardgrass: 0 is no effect, 100 is complete control
Procedure, shortened: (§1)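 Plants grown to the 2-leaf stage in pots flooded to 3 cm above soil; compounds applied directly into the paddy water, depth held throughout. After 13 to 15 d in greenhouse, injury visually rated against untreated controls on a 0–100 scale (0 no effect, 100 complete control).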

[2] = tested on: sedge, umbrella (small-flower umbrella sedge, Cyperus difformis); experiment: Test C flooded paddy test; settings: Flood; for Plant response rating (scale of 0 to 100), Sedge, Umbrella: 0 is no effect, 100 is complete control
Procedure, shortened: as §1

[3] = tested on: rice (Oryza sativa); experiment: Test C flooded paddy test; settings: Flood; for Plant response rating (scale of 0 to 100), Rice: 0 is no effect, 100 is complete control
Procedure, shortened: as §1

[4] = tested on: ducksalad (Heteranthera limosa); experiment: Test C flooded paddy test; settings: Flood; for Plant response rating (scale of 0 to 100), Ducksalad: 0 is no effect, 100 is complete control
Procedure, shortened: as §1

[5] = tested on: ryegrass, Italian (Italian ryegrass, Lolium multiflorum); experiment: Test A preemergence
Procedure, shortened: (§2)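 Compounds were formulated in a non-phytotoxic solvent mixture with surfactant and applied as a preemergence directed soil spray after seeding, or sprayed postemergence over plants 2 to 10 cm tall at the one- to two-leaf stage. Evaluation after about 10 d compared treated with untreated controls, using a scale from 0 (no effect) to 100 (complete control).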

[6] = tested on: barnyardgrass (Echinochloa crus-galli); experiment: Test A preemergence
Procedure, shortened: as §2

[7] = tested on: pigweed (Amaranthus retroflexus); experiment: Test A preemergence
[8] = tested on: ragweed (common ragweed, Ambrosia elatior); experiment: Test A preemergence
Procedure, shortened: as §2

[9] = tested on: Kochia (Kochia scoparia); experiment: Test A preemergence
Procedure, shortened: as §2

[10] = tested on: giant foxtail (Setaria faberii); experiment: Test A preemergence
Procedure, shortened: as §2

[11] = tested on: ryegrass, Italian (Italian ryegrass, Lolium multiflorum); experiment: Test A postemergence; settings: postemergence, 0 to 100 scale (0 no effect, 100 complete control)
Procedure, shortened: as §2

[12] = tested on: wheat (Triticum aestivum); experiment: Test A postemergence; settings: postemergence, 0 to 100 scale (0 no effect, 100 complete control)
Procedure, shortened: as §2

[13] = tested on: barnyardgrass (Echinochloa crus-galli); experiment: Test A postemergence
Procedure, shortened: as §2

[14] = tested on: pigweed (Amaranthus retroflexus); experiment: Test A postemergence; settings: postemergence, 0 to 100 scale (0 no effect, 100 complete control)
Procedure, shortened: as §2

[15] = tested on: ragweed (common ragweed, Ambrosia elatior); experiment: Test A postemergence; settings: postemergence, 0 to 100 scale (0 no effect, 100 complete control)
Procedure, shortened: as §2

[16] = tested on: corn (Zea mays); experiment: Test A postemergence
Procedure, shortened: as §2

[17] = tested on: Kochia (Kochia scoparia); experiment: Test A postemergence; settings: postemergence, 0 to 100 scale (0 no effect, 100 complete control)
Procedure, shortened: as §2

[18] = tested on: blackgrass (Alopecurus myosuroides); experiment: Test A postemergence
Procedure, shortened: as §2

[19] = tested on: giant foxtail (Setaria faberii); experiment: Test A postemergence; settings: postemergence, 0 to 100 scale (0 no effect, 100 complete control)
Procedure, shortened: as §2

[20] = tested on: Galium (catchweed bedstraw, Galium aparine); experiment: Test A postemergence; settings: postemergence, 0 to 100 scale (0 no effect, 100 complete control)
Procedure, shortened: as §2

[21] = tested on: barnyardgrass (Echinochloa crus-galli); experiment: Test B flooded paddy test; settings: Flood, 250 g ai/ha; 0 to 100 scale where 0 is no effect and 100 is complete control; 13 to 15 d
Procedure, shortened: (§3)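 Greenhouse paddy pots with 2-leaf stage plants received compound by direct addition to floodwater 3 cm deep, kept at that level. Scored visually at 13–15 d versus controls (0 no effect; 100 complete control).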

[22] = tested on: sedge, umbrella (small-flower umbrella sedge, Cyperus difformis); experiment: Test B flooded paddy test; settings: Flood, 250 g ai/ha; 0 to 100 scale where 0 is no effect and 100 is complete control; 13 to 15 d
Procedure, shortened: as §3

[23] = tested on: rice (Oryra sativa); experiment: Test B flooded paddy test; settings: Flood, 250 g ai/ha; 0 to 100 scale where 0 is no effect and 100 is complete control; 13 to 15 d
Procedure, shortened: as §3

[24] = tested on: ducksalad (Heteranthera limosa); experiment: Test B flooded paddy test; settings: Flood, 250 g ai/ha; 0 to 100 scale where 0 is no effect and 100 is complete control; 13 to 15 d
Procedure, shortened: as §3

[25] = 125 g ai/ha, Preemergence, visual injury after approximately 10 d, 0 to 100 scale where 0 is no effect and 100 is complete control
[26] = 500 g ai/ha, preemergence, 0 to 100 scale, 0 = no effect, 100 = complete control
[27] = 125 g ai/ha, visual rating after approx. 10 d
[28] = 500 g ai/ha, visual injury, approx. 10 d
[29] = 125 g ai/ha, postemergence, visual rating after approx. 10 d, 0 to 100 scale (0 no effect, 100 complete control)
[30] = Postemergence, 500 g ai/ha, 0 to 100 scale where 0 is no effect and 100 is complete control
[31] = 31 g ai/ha, scale 0 to 100 (0 no effect, 100 complete control), 13 to 15 d

CN1CC(c2cccc(F)c2)C(C(=O)Nc2ccc(F)cc2F)C1=O (centres unmarked) [Compound 633]
Plant response rating (scale of 0 to 100), Barnyardgrass ([1]; 31 g ai/ha): 10
Plant response rating (scale of 0 to 100), Barnyardgrass ([1]; 62 g ai/ha): 40
Plant response rating (scale of 0 to 100), Barnyardgrass ([1]; 125 g ai/ha): 55
Plant response rating (scale of 0 to 100), Barnyardgrass ([1]; 250 g ai/ha): 70
Plant response rating (scale of 0 to 100), Sedge, Umbrella ([2]; 31 g ai/ha): 0
Plant response rating (scale of 0 to 100), Sedge, Umbrella ([2]; 62 g ai/ha): 0
Plant response rating (scale of 0 to 100), Sedge, Umbrella ([2]; 125 g ai/ha): 0
Plant response rating (scale of 0 to 100), Sedge, Umbrella ([2]; 250 g ai/ha): 0
Plant response rating (scale of 0 to 100), Rice ([3]; 31 g ai/ha): 0
Plant response rating (scale of 0 to 100), Rice ([3]; 62 g ai/ha): 0
Plant response rating (scale of 0 to 100), Rice ([3]; 125 g ai/ha): 0
Plant response rating (scale of 0 to 100), Rice ([3]; 250 g ai/ha): 10
Plant response rating (scale of 0 to 100), Ducksalad ([4]; 31 g ai/ha): 0
Plant response rating (scale of 0 to 100), Ducksalad ([4]; 62 g ai/ha): 60
Plant response rating (scale of 0 to 100), Ducksalad ([4]; 125 g ai/ha): 75
Plant response rating (scale of 0 to 100), Ducksalad ([4]; 250 g ai/ha): 100
Plant response rating, Ryegrass, Italian [5, 25]: 30
Plant response rating, Ryegrass, Italian [5, 26]: 60
Plant response rating, Barnyardgrass [6, 25]: 90
Plant response rating, Barnyardgrass [6, 26]: 90
Plant response rating, Pigweed [7, 25]: 0
Plant response rating, Pigweed [7, 26]: 50
Plant response rating, Ragweed [8, 25]: 0
Plant response rating, Ragweed [8, 26]: 50
Plant response rating, Kochia [9, 25]: 30
Plant response rating, Kochia [9, 26]: 50
Plant response rating, Foxtail, Giant [10, 25]: 90
Plant response rating, Foxtail, Giant [10, 26]: 90
Plant response rating, Ryegrass, Italian [11, 27]: 0
Plant response rating, Ryegrass, Italian [11, 28]: 50
Plant response rating, Wheat [12, 27]: 0
Plant response rating, Wheat [12, 28]: 40
Plant response rating, Barnyardgrass [13, 29]: 90
Plant response rating, Barnyardgrass [13, 30]: 90
Plant response rating, Pigweed [14, 27]: 0
Plant response rating, Pigweed [14, 28]: 0
Plant response rating, Ragweed [15, 27]: 0
Plant response rating, Ragweed [15, 28]: 0
Plant response rating, Corn [16, 29]: 0
Plant response rating, Corn [16, 30]: 60
Plant response rating, Kochia [17, 27]: 40
Plant response rating, Kochia [17, 28]: 60
Plant response rating, Blackgrass [18, 29]: 20
Plant response rating, Blackgrass [18, 30]: 50
Plant response rating, Foxtail, Giant [19, 27]: 90
Plant response rating, Foxtail, Giant [19, 28]: 90
Plant response rating, Galium [20, 27]: 0
Plant response rating, Galium [20, 28]: 50
Plant response rating, Barnyardgrass [21]: 90
Plant response rating, Sedge, Umbrella [22]: 0
Plant response rating, Rice [23]: 20
Plant response rating, Ducksalad [24]: 100

CN1CC(c2cccc(C(F)(F)F)c2)C(C(=O)Nc2ccccc2C(F)(F)F)C1=O (centres unmarked) [Compound 638]
Plant response rating, Barnyardgrass [1, 31]: 45
Plant response rating (scale of 0 to 100), Barnyardgrass ([1]; 62 g ai/ha): 55
Plant response rating (scale of 0 to 100), Barnyardgrass ([1]; 125 g ai/ha): 60
Plant response rating (scale of 0 to 100), Barnyardgrass ([1]; 250 g ai/ha): 75
Plant response rating, Sedge, Umbrella [2, 31]: 0
Plant response rating (scale of 0 to 100), Sedge, Umbrella ([2]; 62 g ai/ha): 0
Plant response rating (scale of 0 to 100), Sedge, Umbrella ([2]; 125 g ai/ha): 0
Plant response rating (scale of 0 to 100), Sedge, Umbrella ([2]; 250 g ai/ha): 0
Plant response rating, Rice [3, 31]: 20
Plant response rating (scale of 0 to 100), Rice ([3]; 62 g ai/ha): 25
Plant response rating (scale of 0 to 100), Rice ([3]; 125 g ai/ha): 25
Plant response rating (scale of 0 to 100), Rice ([3]; 250 g ai/ha): 25
Plant response rating, Ducksalad [4, 31]: 0
Plant response rating (scale of 0 to 100), Ducksalad ([4]; 62 g ai/ha): 40
Plant response rating (scale of 0 to 100), Ducksalad ([4]; 125 g ai/ha): 60
Plant response rating (scale of 0 to 100), Ducksalad ([4]; 250 g ai/ha): 75
Plant response rating, Ryegrass, Italian [5, 25]: 30
Plant response rating, Ryegrass, Italian [5, 26]: 90
Plant response rating, Barnyardgrass [6, 25]: 90
Plant response rating, Barnyardgrass [6, 26]: 90
Plant response rating, Pigweed [7, 25]: 40
Plant response rating, Pigweed [7, 26]: 60
Plant response rating, Ragweed [8, 25]: 30
Plant response rating, Ragweed [8, 26]: 60
Plant response rating, Kochia [9, 25]: 0
Plant response rating, Kochia [9, 26]: 20
Plant response rating, Foxtail, Giant [10, 25]: 90
Plant response rating, Foxtail, Giant [10, 26]: 100
Plant response rating, Ryegrass, Italian [11, 27]: 30
Plant response rating, Ryegrass, Italian [11, 28]: 40
Plant response rating, Wheat [12, 27]: 60
Plant response rating, Wheat [12, 28]: 70
Plant response rating, Barnyardgrass [13, 29]: 90
Plant response rating, Barnyardgrass [13, 30]: 90
Plant response rating, Pigweed [14, 27]: 20
Plant response rating, Pigweed [14, 28]: 50
Plant response rating, Ragweed [15, 27]: 0
Plant response rating, Ragweed [15, 28]: 0
Plant response rating, Corn [16, 29]: 70
Plant response rating, Corn [16, 30]: 80
Plant response rating, Kochia [17, 27]: 20
Plant response rating, Kochia [17, 28]: 40
Plant response rating, Blackgrass [18, 29]: 50
Plant response rating, Blackgrass [18, 30]: 70
Plant response rating, Foxtail, Giant [19, 27]: 90
Plant response rating, Foxtail, Giant [19, 28]: 90
Plant response rating, Galium [20, 27]: 60
Plant response rating, Galium [20, 28]: 60
Plant response rating, Barnyardgrass [21]: 85
Plant response rating, Sedge, Umbrella [22]: 0
Plant response rating, Rice [23]: 10
Plant response rating, Ducksalad [24]: 100
